# Laboratory results: patent US8101408B2, “Insecticidal extract from legume plants and method of preparing the same” (Her Majesty the Queen in right of Canada, as represented by …, priority 2005, dated 2012)
# Where “and” joins values, the source holds several entries; their conditions need not be identical. Equal entries are not always repeated. Entries after “also recorded” stand apart in the source; their conditions may differ. Where two headings read alike, the source gives them in different places.
# Tests used:
# Sitophilus oryzae [1] = experiment: Flour disk antifeedant bioassay with rice weevils (food consumption as % of control; EC50/EC90 for feeding reduction); format: in vivo; conditions: for food consumption in the rice weevil bioassay: RPC isolate
# Procedure: The bioactivity of separated fractions was determined primarily by a flour disk antifeedant bioassay with the rice weevil (Sitophilus oryzae), an insect pest of stored products.
# A glass column (1.2 cm internal diameter×20.5 cm length) equipped with a solvent reservoir and stopcock was filled with silica gel (Mallinckrodt SilicAR cc-7) using a slurry of the silica gel in chloroform (Merck OmniSolv containing 1% ethanol). The top of the bed was protected with sea sand. C8 powder (130 mg) was applied to the column, after mixing with silica gel, as a 1.25 cm band. Using a slight positive air pressure to maintain reasonable flow rates, the column was eluted with chloroform (75 ml) then with 75 ml volumes of various mixtures of chloroform and methanol followed by pure methanol (Table 1). The column was eluted with more methanol (75 ml) and finally with two additional volumes of methanol (250 ml each). […] A final evaporation was performed with a Savant apparatus (43° C.). The tubes were re-weighed, capped and transferred to the bioassay laboratory. Each sample was dissolved in 70% ethanol (0.5 ml) and 0.2 ml of that solution was added to the wheat flour (200 mg) for preparation of the disks. […] Control disks were prepared with 0.2 ml of 70% ethanol.
# A test insecticidal compound is incorporated into flour disks. […] A typical dose in many of the above examples is 1.6 milligram/200 milligram flour. Wheat flour is typically used.
# (§1) Reduction in feeding activity elicited by the experimental samples was compared to food consumption of untreated controls, obtained by weighing the disks before and after exposure to insects and expressed as percent feeding relative to the control. Bioassay can also include insecticidal measurements (lethality with rice weevil).
# (§2) Flour disks (ca. 0.1 g/disk) were weighed before and after exposure to the insects. […] Antifeedant activity was determined by expressing consumption of treated disks as a percentage of control disks (70% ethanol). Positive controls using the same C8 extract were run with each bioassay.
# The estimate and confidence limits are the values of X where the line Y=Yo crosses the regression line and its upper and lower confidence curves, respectively. The formulae can be expressed in terms of outputs from the regression analysis. Let a and b be the estimates of the intercept and slope, MSE the mean square error, n the number of observations, t the (2-sided) critical value of t with n−2 degrees of freedom, V(b) the variance (standard error squared) of b and D=b^2−t^2V(b)). Then the estimate of X is Xo=(Yo−a)/b and the confidence limits for X are X0+t^2V(b)(Y0− Y)/bD±H where H^2=t^2└D·MSE/n+V(b)(Y0− Y)^2┘/D^2. The interval is not symmetric about Xo. […]
# Sitophilus oryzae [2] = format: in vivo; conditions: for mortality / toxicity to the rice weevil (in words): used alone
# Procedure: as §1, §2
# Probit analysis (Polo-PC, LeOra Software, Berkeley, Calif., U.S.A.) was used to estimate the concentrations required to kill 50 and 90% of the population after seven days. For the experiments that used a single dose, the mean survival time was estimated using Kaplan-Meier survival analysis (SigmaStat 3.0, SPSS Inc, Chicago, Ill., U.S.A.).
# [3] = target: calcium-dependent potassium channels (Homo sapiens, UniProt Q12791); conditions: mammalian in vitro experiments (McManus et al.); cited from earlier work
# Chain of calcium-dependent potassium channels (Q12791 whole entry): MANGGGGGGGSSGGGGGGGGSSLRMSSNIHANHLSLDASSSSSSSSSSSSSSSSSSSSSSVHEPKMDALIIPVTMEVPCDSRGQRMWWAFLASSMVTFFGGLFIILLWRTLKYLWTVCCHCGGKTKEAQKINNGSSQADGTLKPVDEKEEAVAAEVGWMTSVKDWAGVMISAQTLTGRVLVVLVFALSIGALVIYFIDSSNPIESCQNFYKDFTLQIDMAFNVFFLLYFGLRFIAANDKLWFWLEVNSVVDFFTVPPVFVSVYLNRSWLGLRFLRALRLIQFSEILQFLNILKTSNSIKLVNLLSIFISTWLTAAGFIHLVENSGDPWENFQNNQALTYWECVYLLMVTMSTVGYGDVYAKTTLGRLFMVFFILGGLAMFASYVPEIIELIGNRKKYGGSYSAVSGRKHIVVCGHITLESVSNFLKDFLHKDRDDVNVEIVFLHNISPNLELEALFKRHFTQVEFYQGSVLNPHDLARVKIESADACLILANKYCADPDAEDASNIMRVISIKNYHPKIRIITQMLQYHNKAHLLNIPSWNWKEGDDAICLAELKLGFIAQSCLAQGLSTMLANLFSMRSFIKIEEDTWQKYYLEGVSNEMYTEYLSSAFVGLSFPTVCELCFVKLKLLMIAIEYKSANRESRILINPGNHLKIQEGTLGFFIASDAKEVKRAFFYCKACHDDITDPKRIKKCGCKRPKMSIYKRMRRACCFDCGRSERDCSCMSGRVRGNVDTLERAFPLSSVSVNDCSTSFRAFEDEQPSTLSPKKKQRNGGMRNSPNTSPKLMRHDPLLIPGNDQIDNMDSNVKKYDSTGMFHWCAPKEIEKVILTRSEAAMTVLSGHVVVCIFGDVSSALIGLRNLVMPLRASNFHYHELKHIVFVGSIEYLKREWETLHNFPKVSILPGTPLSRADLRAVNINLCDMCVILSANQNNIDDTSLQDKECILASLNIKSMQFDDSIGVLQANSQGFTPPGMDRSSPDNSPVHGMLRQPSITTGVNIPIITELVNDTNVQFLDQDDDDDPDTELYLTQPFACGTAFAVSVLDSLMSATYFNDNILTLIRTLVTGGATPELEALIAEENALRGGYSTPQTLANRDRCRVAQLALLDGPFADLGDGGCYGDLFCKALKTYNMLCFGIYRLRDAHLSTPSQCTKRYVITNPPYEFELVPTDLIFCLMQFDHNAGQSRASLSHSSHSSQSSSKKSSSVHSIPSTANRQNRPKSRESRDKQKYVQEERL
# Chain of calcium-dependent potassium channels (Q16558 whole entry partner): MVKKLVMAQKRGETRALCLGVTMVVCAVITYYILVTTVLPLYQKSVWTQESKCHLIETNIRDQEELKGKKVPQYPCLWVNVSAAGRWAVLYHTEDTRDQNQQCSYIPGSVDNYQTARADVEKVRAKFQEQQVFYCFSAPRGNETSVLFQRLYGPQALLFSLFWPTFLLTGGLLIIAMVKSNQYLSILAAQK
# [4] = Stability in solution or on storage judged by TLC, HPLC and mass spectrometry; format: physicochemical
# From the text: Samples containing soyasaponin VI, freshly prepared in 80% ethanol, could be shown to contain intact soyasaponin VI by HPLC/MS with electrospray ionization, by the appearance of the strong quasimolecular ion at mass1069. However, the samples were always contaminated with soyasaponin I (quasimolecular ion at 943).
# The peptide of mass 3788 was of particular interest because its molecular weight was the same as that of PA1b described by Higgins et al. (1986). During RPC, the 3788 peptide was found in highest concentrations in the end fractions from silica gel flash chromatography of C8 with chloroform-water-methanol and then methanol as eluent (system 1 isolate).
# [5] = tested on: sugar taste receptor cells of the blowfly; conditions: Ahamed et al., 2000; cited from earlier work
# Sitophilus oryzae [6] = conditions: sample from a Japanese scientist; Bodnaryk et al., U.S. Pat. No. 5,955,082; cited from earlier work
# [7] = C8 material as peptide source, total dose 1.6 mg/200 mg of flour (D-I: 0.8 mg/100 mg)
# [8] = peptide source AIEX YM3, total dose 1.6 mg/200 mg of flour (D-I: 0.8 mg/100 mg)
# [9] = saponin:peptide ratio 1:0, 0.6% used in this test
# [10] = C8 material as peptide source, total dose 1.6 mg/200 mg of flour
# [11] = separate experiment, different batch of C8 material as peptide source, total dose 1.6 mg/200 mg of flour
smiles,measurement,setting,value
"C[C@@H]1O[C@@H](O[C@H]2[C@H](O[C@H]3[C@H](O[C@H]4CC[C@@]5(C)[C@@H](CC[C@]6(C)[C@@H]5CC=C5[C@@H]7CC(C)(C)CC(=O)[C@]7(C)CC[C@]56C)[C@@]4(C)CO)O[C@H](C(=O)O)[C@@H](O)[C@@H]3O)O[C@H](CO)[C@H](O)[C@@H]2O)[C@H](O)[C@H](O)[C@H]1O [Dehydrosoyasaponin I, dehydrosoyasaponin I]","food consumption, peptide to saponin treatment ratio 9:1 (values in brackets)",Sitophilus oryzae [1]; [7],(17) % of control
same,food consumption in the rice weevil bioassay,Sitophilus oryzae [1]; […]100 mg of flour (equivalent to 1.28 mg/200 mg),65%
same,"food consumption, peptide to saponin treatment ratio 1:1",Sitophilus oryzae [1]; [8],34 % of control
same,"food consumption, peptide to saponin treatment ratio 9:1",Sitophilus oryzae [1]; [8],32 % of control
same,Feeding as a percent of control (%),Sitophilus oryzae [1]; [9],65%
same,synergy with pea peptides (in words),"Sitophilus oryzae [1]; single dose tests, pea peptide to saponin treatment ratios of 9:1, 1:1 and 1:9",clearly synergistic
same,Mean survival time (days ± SE),Sitophilus oryzae [2]; [9],13.8 ± 0.2 a days
same,action on calcium-dependent potassium channels (in words),[3],high-affinity activator
same,potency as a potassium channel opener relative to S-I,[3],60 fold
"CC1=C(O)C(=O)C[C@H](O[C@@H]2CC(C)(C)C[C@H]3C4=CC[C@@H]5[C@@]6(C)CC[C@H](O[C@@H]7O[C@H](C(=O)O)[C@@H](O)[C@H](O)[C@H]7O[C@@H]7O[C@H](CO)[C@H](O)[C@H](O)[C@H]7O[C@@H]7O[C@@H](C)[C@H](O)[C@@H](O)[C@H]7O)[C@](C)(CO)[C@@H]6CC[C@@]5(C)[C@]4(C)CC[C@@]23C)O1 [Soyasaponin VI, soyasaponin VI]",food consumption in the rice weevil bioassay,"Sitophilus oryzae [1]; 0.8 mg dose, disks from one-half the usual amount of flour (100 mg)",80%
same,stability (in words),[4],somewhat unstable in solution
same,effect on sugar taste receptor cells (in words),[5],stimulate the sugar taste receptor cells
"C[C@@H]1O[C@@H](O[C@H]2[C@H](O[C@H]3[C@H](O[C@H]4CC[C@@]5(C)[C@@H](CC[C@]6(C)[C@@H]5CC=C5[C@@H]7CC(C)(C)C[C@@H](O)[C@]7(C)CC[C@]56C)[C@@]4(C)CO)O[C@H](C(=O)O)[C@@H](O)[C@@H]3O)O[C@H](CO)[C@H](O)[C@@H]2O)[C@H](O)[C@H](O)[C@H]1O [Soyasaponin I, soyasaponin I]","food consumption, peptide to saponin treatment ratio 1:1 (values in brackets)",Sitophilus oryzae [1]; [10],(27) % of control
same,"food consumption, peptide to saponin treatment ratio 1:9 (values in brackets)",Sitophilus oryzae [1]; [10],(26) % of control
same,"food consumption, peptide to saponin treatment ratio 9:1 (values in brackets)",Sitophilus oryzae [1]; [7],(29) % of control
same,food consumption in the rice weevil bioassay,"Sitophilus oryzae [1]; 0.43 mg dose, disks from one-half the usual amount of flour (100 mg)",100%
same,food consumption (% of control),"Sitophilus oryzae [1]; Table 3, dose 1.6 mg/200 mg flour, listed as soyasaponin I (free acid)",83 % of control and 114 % of control
same,"food consumption, initial treatment","Sitophilus oryzae [1]; Table 20, saponin alone, 1.6 mg/200 mg of flour",98 % of control
same,"feeding, % of the control","Sitophilus oryzae [1]; highest concentration tested, 12.8%",75 % of the control
same,"food consumption, peptide to saponin treatment ratio 1:9","Sitophilus oryzae [1]; peptide source AIEX YM3, total dose 1.6 mg/200 mg of flour",16 % of control
same,"food consumption, peptide to saponin treatment ratio 1:1",Sitophilus oryzae [1]; [8],23 % of control
same,"food consumption, peptide to saponin treatment ratio 9:1",Sitophilus oryzae [1]; [8],24 % of control
same,antifeedant activity (in words),Sitophilus oryzae [1]; rice weevil flour disk bioassay,inactive; also recorded: no significant reduction in feeding
same,Feeding as a percent of control (%),"Sitophilus oryzae [1]; saponin:peptide ratio 1:0 (saponin or soap alone), concentration 0.8%",92% and 98%
same,EC90 (%) to reduce feeding by 90%,"Sitophilus oryzae [1]; saponin:peptide ratio 1:0, three days on treated wafers",>>12 ^ %
same,"food consumption, peptide to saponin treatment ratio 1:1 (values in brackets)",Sitophilus oryzae [1]; [11],(33)^7 % of control
same,"food consumption, peptide to saponin treatment ratio 1:9 (values in brackets)",Sitophilus oryzae [1]; [11],(42)^7 % of control
same,"food consumption, peptide to saponin treatment ratio 9:1 (values in brackets)",Sitophilus oryzae [1]; [11],(44)^7 % of control
same,Mean survival time (days ± SE),"Sitophilus oryzae [2]; saponin:peptide ratio 1:0, 0.8%, Kaplan-Meier",13.8 a days
same,LD90 (%),"Sitophilus oryzae [2]; saponin:peptide ratio 1:0, held three days on treated wafers, at 7 days",>>12 ^ %
same,mortality / toxicity to the rice weevil (in words),Sitophilus oryzae [2],no mortality
same,mortality / toxicity to the rice weevil (in words),Sitophilus oryzae [2]; listed as soyasaponin I,no increase in mortality
same,activity in the rice weevil bioassays (in words),Sitophilus oryzae [6],nearly inactive
